Measurements taken from patent publication US10226501B2, “Method of orally administering a date fruit extract to treat breast cancer” (King Abdulaziz University, priority 2017, dated 2019).

Tested on: female Wistar rats having DMBA-induced breast cancer
Test: Serum antioxidant enzyme activities in rats with DMBA-induced breast cancer
Assay type: in vivo, rat
Conditions: oral, daily for three months, ADE 1 or 0.5 g/kg b.w., melatonin 2.5 mM
Excerpt: This is an in vivo experiment showing the improvement of Ajwa Date Extract (ADE) on the antioxidant system in rats having breast cancer induced by 7,12-Dimethylbenz[a]anthracene (DMBA).
The experiment of DMBA-induced breast cancer in female Wistar rats was comprised of six different treatment groups: the untreated controls (administered normal diet), DMBA-treated, DMBA-treated and orally administered 1 g/kg b.w. (body weight) of ADE, DMBA-treated and orally administered 0.5 g/kg b.w. of ADE, DMBA-treated and administered orally 2.5 mM melatonin, and DMBA-treated and administered 2.5 mM melatonin plus 1 g/kg b.w. of ADE. All six groups were treated daily for three months. On sacrification day, samples of blood were collected with the serum being separated and stored at −80° C.
The collected sera were analyzed for four mean activities namely, of superoxide dismutase (SOD) catalase, glutathione reductase (GR), and glutathione peroxidase (GPx). The means of the four activities in sera of the six treatment groups are illustrated in FIGS. 4-7. The mean serum SOD (FIG. 4), catalase (FIG. 5), GR (FIG. 6), and GPx (FIG. 7) in DMBA and ADE and/or melatonin administered rats was higher than that of the DMBA administered rats that were deprived of the ADE and/or melatonin.

COc1ccc2[nH]cc(CCNC(C)=O)c2c1 [melatonin]
higher: mean serum SOD activity (compared with DMBA-only rats (FIG. 4)) | mean serum catalase activity (compared with DMBA-only rats (FIG. 5)) | mean serum GR activity (compared with DMBA-only rats (FIG. 6)) | mean serum GPx activity (compared with DMBA-only rats (FIG. 7))
